{"source": "ChEMBL document CHEMBL1134723", "about": "“Synthesis and evaluation of the sunflower derived trypsin inhibitor as a potent inhibitor of the type II transmembrane serine protease, matriptase” (Bioorg Med Chem Lett, 2001)", "biological_target": "Prothrombin (Bos taurus, UniProt P00735)", "experiment": "Compound was tested for inhibition of bovine Thrombin", "data": [{"smiles": "CC[C@H](C)[C@@H]1NC(=O)[C@@H]2CCCN2C(=O)[C@@H]2CCCN2C(=O)[C@H]([C@@H](C)CC)NC(=O)[C@H](CO)NC(=O)[C@H](CCCCN)NC(=O)[C@H]([C@@H](C)O)NC(=O)[C@@H]2CSSC[C@H](NC1=O)C(=O)N[C@@H](Cc1ccccc1)C(=O)N1CCC[C@@H]1C(=O)N[C@@H](CC(=O)O)C(=O)NCC(=O)N[C@@H](CCCN=C(N)N)C(=O)N2", "values": [{"measurement": "Ki", "result": 5.05, "unit": "µM"}]}]}
